Data: patent US5451605A, “1,2-epoxycyclohexanyl and bicyclic aromatic substituted ethyne compounds having retinoid-like biological activity” (Allergan, Inc., priority 1993, dated 1995)

Tests used:
[1] = tested on: ornithine decarboxylase (ODC); assay: inhibition of TPA induction of ornithine decarboxylase (ODC); assay type: in vivo
Text: The retinoid-like activity of these compounds is confirmed through the classic measure of retinoic acid activity involving the effects of retinoic acid on ornithine decarboxylase. The original work on the correlation between retinoic acid and decrease in cell proliferation was done by Verma & Boutwell, Cancer Research, 1977, 37,2196-2201. That reference discloses that ornithine decarboxylase (ODC) activity increased precedent to polyamine biosynthesis. It has been established elsewhere that increases in polyamine synthesis can be correlated or associated with cellular proliferation. Thus, if ODC activity could be inhibited, cell hyperproliferation could be modulated. Although all causes for ODC activity increases are unknown, it is known that 12-0-tetradecanoylphorbol-13-acetate (TPA) induces ODC activity.

[2] = tested on: ornithine decarboxylase (ODC); settings: general statement, TPA-induced ODC; cited from earlier work

| Structure (SMILES) | IC80 [1] | inhibition of TPA induction of ODC activity [2] |
| --- | --- | --- |
| CC1(C)CCCC2(C)OC12C#Cc1ccc2cc(C(=O)O)ccc2c1 (racemic) [Compound 1, 6-[2-(1,2-epoxy-2,6,6-trimethyl-cyclohexan-1-yl)-ethynyl]-2-naphthoic acid] | 30.5 nM |  |
| CC1=C(/C=C/C(C)=C/C=C/C(C)=C/C(=O)O)C(C)(C)CCC1 [Retinoic acid] |  | inhibits this induction of ODC activity by TPA |
